Test: solvent given as SMILES

Q: Which results are given for CN(C)c1ccc(/C=C/c2nc3c4ccccc4c4ccccc4c3[nH]2)cc1?
A: fluorescence lifetime (in C1CCOC1): 0.341 ns; fluorescence lifetime (in C1COCCO1): 0.484 ns; fluorescence lifetime (in CC1CCCCC1): 0.471 ns; fluorescence lifetime (in CC#N): 0.356 ns; fluorescence lifetime (in CCOC(C)=O): 0.325 ns; fluorescence lifetime (in CCOCC): 0.391 ns; fluorescence lifetime (in CN(C)C=O): 0.37 ns; fluorescence lifetime (in COC(C)=O): 0.308 ns; fluorescence lifetime (in CS(C)=O): 0.384 ns; fluorescence lifetime (in Cc1ccccc1): 0.306 ns; fluorescence lifetime (in ClC(Cl)Cl): 0.138 ns

Q: With COc1ccc2c(c1)c1cc(OC)ccc1n2-c1ccc2c(c1)-c1cc(-n3c4ccc(OC)cc4c4cc(OC)ccc43)ccc1P2(=O)c1ccccc1 as the compound, how does the fluorescence lifetime (in c1ccc2c(c1)c1ccccc1n2-c1ccc(-c2ccc(-n3c4ccccc4c4ccccc43)cc2)cc1) read?
A: The fluorescence lifetime was 16.7 ns.

Q: With Fc1ccc(-c2ccc(-c3cc(-c4ccccn4)nc(-c4ccccn4)c3)cc2)c(F)c1 as the compound, how does the fluorescence lifetime (in ClCCl) read?
A: The fluorescence lifetime was 1.77 ns.

Q: Which fluorescence lifetime (in ClCCl) does the source give for c1ccc2c(c1)Nc1ccccc1B2c1c2ccccc2cc2ccccc12 here?
A: The fluorescence lifetime was 16.8 ns.

Q: With COc1ccc(Oc2ccc3c4c(cccc24)C(=O)N(c2c(C(C)C)cccc2C(C)C)C3=O)cc1 as the compound, how does the fluorescence lifetime (in ClCCl) read?
A: Its fluorescence lifetime is 4.9 ns.

Q: Which results are given for Cc1ccc(C2=C3C=CC(/C=C/c4ccccc4)=[N+]3[B-](F)(F)n3c(Cl)ccc32)cc1?
A: fluorescence lifetime (in C1CCCCC1): 3.64 ns; fluorescence lifetime (in C1CCOC1): 3.45 ns; fluorescence lifetime (in C1COCCO1): 3.68 ns; fluorescence lifetime (in CCOC(C)=O): 3.43 ns; fluorescence lifetime (in CO): 3.16 ns; fluorescence lifetime (in Cc1ccccc1): 3.68 ns; fluorescence lifetime (in ClC(Cl)Cl): 3.98 ns

Q: With CCn1c2ccccc2c2cc(-c3cc(-c4ccc5c(c4)c4ccccc4n5CC)nc(C#N)n3)ccc21 as the compound, how does the fluorescence lifetime (in C1CCOC1) read?
A: The fluorescence lifetime was 2.57 ns.

Q: Which fluorescence lifetime (in CC#N) does the source give for N#C/C(=C\c1ccc(C#N)cc1)c1nc(-c2ccc(Cl)cc2)c(-c2ccccc2)s1 here?
A: Its fluorescence lifetime is 2.48 ns.

Q: What does the source list for F[B-]1(F)n2c(Nc3cccc4cccnc34)ccc2C(c2ccccc2)=C2C=CC(Cl)=[N+]21?
A: fluorescence lifetime (in C1CCCCC1): 3.21 ns; fluorescence lifetime (in Cc1ccccc1): 0.82 ns

Q: Which fluorescence lifetime (in C1CCOC1) does the source give for NS(=O)(=O)c1ccc(N2N=C(c3ccc(O)cc3)CC2c2ccc(Cl)cc2)cc1 (centres undefined) here?
A: The fluorescence lifetime was 2.32 ns.

Q: And the fluorescence lifetime (in C1COCCO1)?
A: The fluorescence lifetime was 2.29 ns.

Q: What about the fluorescence lifetime (in CC#N) of the same compound?
A: Its fluorescence lifetime is 2.29 ns.

Q: What about the fluorescence lifetime (in CC(C)O) of the same compound?
A: The fluorescence lifetime was 2 ns.

Q: What about the fluorescence lifetime (in CCO) of the same compound?
A: Its fluorescence lifetime is 1.88 ns.

Q: And the fluorescence lifetime (in CCOC(C)=O)?
A: Its fluorescence lifetime is 2.34 ns.

Q: And the fluorescence lifetime (in CN(C)C=O)?
A: Its fluorescence lifetime is 2.35 ns.

Q: What about the fluorescence lifetime (in CO) of the same compound?
A: Its fluorescence lifetime is 1.68 ns.

Q: What about the fluorescence lifetime (in CS(C)=O) of the same compound?
A: Its fluorescence lifetime is 2.49 ns.

Q: What about the fluorescence lifetime (in O) of the same compound?
A: The fluorescence lifetime was 3.2 ns.

Q: With COc1ccc(C2=[O+][B-](F)(F)OC(c3ccc4c(c3)Cc3ccccc3-4)=C2)cc1 as the compound, how does the fluorescence lifetime (in CC#N) read?
A: Its fluorescence lifetime is 1.6 ns.

Q: With O=Cc1ccc(C#CC(C#Cc2ccc(C=O)s2)=Cc2ccc(C=C(C#Cc3ccc(C=O)s3)C#Cc3ccc(C=O)s3)s2)s1 as the compound, how does the fluorescence lifetime (in ClC(Cl)Cl) read?
A: The fluorescence lifetime was 0.5 ns.

Q: Which fluorescence lifetime (in CS(C)=O) does the source give for Cn1c(=O)c(/N=N/c2ccc(Nc3ccc([N+](=O)[O-])cc3S(=O)(=O)O)cc2)c(O)c2ccccc21 here?
A: The fluorescence lifetime was 0.03 ns.

Q: Which fluorescence lifetime (in C1CCCCC1) does the source give for Nc1ccc2c(c1)Cc1ccccc1-2 here?
A: The fluorescence lifetime was 5.3 ns.

Q: And the fluorescence lifetime (in CC#N)?
A: Its fluorescence lifetime is 3.2 ns.

Q: And the fluorescence lifetime (in CO)?
A: The fluorescence lifetime was 4.5 ns.

Q: And the fluorescence lifetime (in O)?
A: The fluorescence lifetime was 2.1 ns.

Q: With C(#Cc1ccc2c(c1)c1cc(C#Cc3ccccc3)ccc1n2-c1cc2ccccc2c2ccccc12)c1ccccc1 as the compound, how does the fluorescence lifetime (in ClCCl) read?
A: The fluorescence lifetime was 4.27 ns.

Q: With [NH3+]C(Cc1ccc(O)cc1)C(=O)[O-] (centres undefined) as the compound, how does the fluorescence lifetime (in O) read?
A: Its fluorescence lifetime is 3.27 ns.

Q: For F[B-]1(F)Oc2ccccc2-c2c3c(c4c([n+]21)CCc1ccccc1-4)CCc1ccccc1-3, which fluorescence lifetime (in ClCCl) is on record?
A: Its fluorescence lifetime is 2.15 ns.

Q: For COc1cc2c(cc1-c1ccc(N(C)C)cc1)Cc1c3c(c4c(c1-2)-c1cc(OC)c(-c2ccc(N(C)C)cc2)cc1C4)C(=O)N(CCC(C)C)C3=O, which fluorescence lifetime (in C1CCOC1) is on record?
A: Its fluorescence lifetime is 1.01 ns.

Q: With N#Cc1nc(-c2ccc(N3c4ccccc4Oc4ccccc43)cc2)c(-c2ccc(N3c4ccccc4Oc4ccccc43)cc2)nc1C#N as the compound, how does the fluorescence lifetime (in c1cc(-c2cccc(-n3c4ccccc4c4ccccc43)c2)cc(-n2c3ccccc3c3ccccc32)c1) read?
A: The fluorescence lifetime was 21 ns.

Q: With C=Cc1cc2ccc(OC(=O)c3ccccc3)cc2oc1=O as the compound, how does the fluorescence lifetime (in CC#N) read?
A: The fluorescence lifetime was 3.28 ns.

Q: With Cc1cc(-c2ccc(-c3ccccc3)cc2)cc(C)[o+]1 as the compound, how does the fluorescence lifetime (in ClCCl) read?
A: Its fluorescence lifetime is 3.4 ns.

Q: Which fluorescence lifetime (in ClC(Cl)Cl) does the source give for C(#Cc1ccccc1)c1ccccc1 here?
A: Its fluorescence lifetime is 3.89 ns.

Q: What does the source list for COc1ccc(-c2ccc(-c3ccc(C#N)s3)s2)cc1?
A: fluorescence lifetime (in C1CCCCC1): 0.23 ns; fluorescence lifetime (in C1COCCO1): 0.38 ns; fluorescence lifetime (in CC#N): 0.97 ns; fluorescence lifetime (in CC(C)O): 0.89 ns; fluorescence lifetime (in CCCCO): 0.91 ns; fluorescence lifetime (in CCO): 0.93 ns; fluorescence lifetime (in CCOC(C)=O): 0.44 ns; fluorescence lifetime (in CN(C)C=O): 1.44 ns; fluorescence lifetime (in CO): 1.06 ns; fluorescence lifetime (in CS(C)=O): 1.76 ns; fluorescence lifetime (in Cc1ccccc1): 0.34 ns; fluorescence lifetime (in ClC(Cl)Cl): 0.6 ns; fluorescence lifetime (in ClCCl): 0.74 ns; fluorescence lifetime (in O): 0.91 ns

Q: With CC(C)(C)c1ccc2c(c1)c1cc(C(C)(C)C)ccc1n2-c1ccc(C#Cc2ccc3c4ccc(C#Cc5ccc(C=C(C#N)C#N)cc5)cc4n(-c4ccc(C(F)(F)F)cc4)c3c2)cc1 as the compound, how does the fluorescence lifetime (in ClCCl) read?
A: The fluorescence lifetime was 0.29 ns.

Q: Which results are given for O=C(O)c1c2ccccc2nc2ccccc12?
A: fluorescence lifetime (in C1CCOC1): 1.1 ns; fluorescence lifetime (in C1COCCO1): 0.9 ns; fluorescence lifetime (in CC#N): 0.8 ns; fluorescence lifetime (in CCCCCO): 0.7 ns; fluorescence lifetime (in CCCCO): 0.8 ns; fluorescence lifetime (in CCCO): 0.7 ns; fluorescence lifetime (in CCO): 0.6 ns; fluorescence lifetime (in CO): 0.8 ns; fluorescence lifetime (in COCCOC): 1.5 ns; fluorescence lifetime (in ClC(Cl)Cl): 0.6 ns; fluorescence lifetime (in ClCCl): 0.9 ns; fluorescence lifetime (in OCCO): 0.8 ns

Q: Which fluorescence lifetime (in ClCCl) does the source give for CCCCCCCCCCCCN1C(=O)c2c(c3ccc4cc(-c5ccccc5)c(OC)cc4c3c3c2ccc2cc(-c4ccccc4)c(OC)cc23)C1=O here?
A: Its fluorescence lifetime is 6.16 ns.
